Reference: US8912144B2, “Method for treating stroke via administration of NEP1-40 and inosine” (Children's Medical Center Corporation, priority 2003, dated 2014)

Assays:
Format in all cases: in vivo, rat
activated caspase-3 = experiment: Activated caspase-3 profiles at the periphery of the stroke; settings: standardized area on the periphery of the stroke
Experimental: A photothrombotic stroke model was used to generate unilateral ischemic lesions centered in the forelimb motor area of the cortex. The infarct area was determined using stereotaxic coordinates and was verified by histological analysis. Lesions were restricted to one hemisphere and included the caudal forelimb area of the primary motor cortex along with varying amounts of adjacent cortex (FIG. 10A and FIGS. 15 and 16). Lesion size varied among animals in each group, but there were no systematic between-group differences (lesion size [in pixels]=85.4±8.2 d [mean±S.E.M] for the saline-treated group and 81.1±8.6 for the inosine-treated group: difference not significant). […] This conclusion is further supported by the absence of any difference between inosine- and saline-treated cases in the number and size of profiles expressing activated caspase-3, as quantified focally in a standardized area on the periphery of the stroke (Caspase-3 profiles in saline-treated group=11.8±1.1, and in inosine treated group=11.9±1.5).

C1q, C3, metallothionein = experiment: Immunohistochemistry for C1q, C3 and metallothionein in layer 5 of the uninjured forelimb motor cortex; settings: 7 days after stroke
Experimental: To investigate whether some of the changes seen in the microarray study translate into differences at the protein level, immunohistochemistry was performed for C1q, C3, and metallothionein (Study VII). […] Immunohistochemistry was used to investigate whether inosine-induced changes found at the mRNA level translate into changes at the protein level. Analyses were carried out in layer 5 of the uninjured forelimb motor cortex 7 days after a stroke was induced in the corresponding region of the contralateral hemisphere. Inosine induced changes in levels of complement proteins C1q (a) and C3 (b) and metallothionine (c).

[1] = tested on: raphespinal fibers and corticospinal tract axons; experiment: Anatomical sprouting of raphespinal and corticospinal tract axons after spinal cord injury; settings: after dorsal hemisection
Experimental: To test the effects of inosine on spinal cord injury, the dorsal half of the spinal cord in rats was transected, severing the descending CST and other pathways. CST loss severely disrupted fine, skilled behaviors. Inosine was then administered either intra-cerebroventricularly (50 mM, 0.25 μl/hour) or intravenously (260 mM, 10 μl/hour) for 4 weeks. […] Complete transection of the corticospinal tract was verified histologically. The effectiveness of inosine was clinically relevant, since it avoids the risk of intracerebral infection.

[2] = layer 5 of undamaged hemisphere
[3] = layer 5 of undamaged hemisphere, vs saline

OC[C@H]1O[C@@H](n2cnc3c(O)ncnc32)[C@H](O)[C@@H]1O [inosine]
Caspase-3 profiles (activated caspase-3): 11.9±1.5
metallothionine positively staining profiles per field (C1q, C3, metallothionein): 17.9±0.8
increase of number of metallothionine positively staining profiles per field (C1q, C3, metallothionein; vs saline): 28%
C1q average grain pixel density (C1q, C3, metallothionein; [2]): 5654±894
C3 average grain pixel density (C1q, C3, metallothionein; [2]): 1377±101
increase of C1q staining intensity (C1q, C3, metallothionein; [3]): 75%
increase of C3 staining intensity (C1q, C3, metallothionein; [3]): 37%
long-distance corticospinal tract regeneration [1]: modest effects
sprouting of corticospinal tract axons rostral to the injury site [1]: enhanced the sprouting
sprouting of raphespinal fibers distal to the injury site [1]: enhanced the sprouting
